Experimental data as given in US20050226135A1, “Write-once information recording medium” (KABUSHIKI KAISHA TOSHIBA, priority 2004, published 2005).

Experiment: solubility in an organic solvent at 20° C. by an ordinary method
Format: physicochemical
Conditions: organic solvents of amide, alcohol, ketone, nitrile and halogen systems (chloroform, N,N-dimethyl formamide, methanol, 2,2,3,3-tetrafluoro-1-propanol, ethyl methyl ketone, acetonitrile)

For COc1ccc(OC)c(/N=N/C(=N\[N]([Ni][N](/N=C(\N=N\c2cc(OC)ccc2OC)c2ccccn2)c2ccc([N+](=O)[O-])cn2)c2ccc([N+](=O)[O-])cn2)c2ccccn2)c1 [chemical formula 3], the “solubility in an organic solvent” value was “practically applicable solubility”.
